Results from patent US20180155336A1, “PROCESS FOR THE PREPARATION OF 2-{4-[2-({[2-(4-CHLOROPHENYL)-1,3-THIAZOL-4-YL]METHYL}SULFANYL)-3,5-DICYAN0-6-(PYRROLIDIN-1-YL)PYRIDIN-4-YL]PHENOXY}ETHYL-L-ALANYL-L-ALANINATE MONOHYDROCHLORIDE” (BAYER PHARMA AKTIENGESELLSCHAFT, priority 2015, published 2018).
Counter-ions that a name gives are not always drawn.

Assay: Storage stability of the crystalline form
Assay type: physicochemical
Description: The compound of the formula (I) is generally micronized and formulated in pharmacy.

C[C@H](N)C(=O)N[C@@H](C)C(=O)OCCOc1ccc(-c2c(C#N)c(SCc3csc(-c4ccc(Cl)cc4)n3)nc(N3CCCC3)c2C#N)cc1 [2-{4-[2-({[2-(4-chlorophenyl)-1,3-thiazol-4-yl]methyl}sulphanyl)-3,5-dicyano-6-(pyrrolidin-1-yl)pyridin-4-yl]phenoxy}ethyl-L-alanyl L-alaninate monohydrochloride]
stability properties (even at high atmospheric humidity): very good stability properties | can be stored without any problem (storage time): > 2 years
